In patent publication EP1561465A2, “Methods of use of fluoroquinolone compounds against bacteria” (LG Life Sciences, Ltd., priority 1999, dated 2001):
Values after ≈ are worked out from the molar mass of the structure shown. Read-outs that look alike come from different tables or passages of the source.

Legend:
Format in all cases: cell-based
[1] = tested on: Streptococcus pneumoniae and Haemophilus influenzae; assay: MIC by broth microdilution (NCCLS), all isolates pooled
Shigella spp. = assay: MIC by agar dilution (NCCLS M7-A4), 288 enteropathogenic isolates, gemifloxacin and 15 other antimicrobials; conditions: Shigella spp. N= 21
Procedure, shortened: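 Agar dilution with ~10^4 cfu/spot inoculum; plates incubated aerobically at 35 °C for 24 h, except C. jejuni, held microaerophilically for 48 h. MIC taken as lowest antibiotic concentration with no visible growth.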

Streptococcus pneumoniae [2] = assay: MIC by broth microdilution (NCCLS), dried MicroScan panels, clinical isolates 1998-1999; conditions: for MIC90: Streptococcus pneumoniae
Pseudomonas aeruginosa = assay: MIC by agar dilution (NCCLS), 322 nosocomial Gram negative isolates, Athens 1998; conditions: n = 57 isolates
Klebsiella pneumoniae = assay: as above; conditions: n = 56 isolates; for MIC50 / MIC90: Klebsiella pneumoniae
Streptococcus pneumoniae [3] = assay: MIC by E-test (broth microdilution for gemifloxacin), 107 pneumococcal carrier isolates, Athens 1998; conditions: E-test; for MIC Range: in µg/mL (unit assumed); for MIC50 / MIC90: Streptococcus pneumoniae; for MIC50: read-out: MIC50; for MIC90: read-out: MIC90
Experimental: Susceptibility testing was performed by agar dilution or epsilometer method (E-test), as recommended by the NCCLS. […] The susceptibility profiles of the strains were assessed using the Epsilometer method (E-test). The isolates were subdivided into two groups according to their penicillin susceptibility patterns (penicillin-susceptible and penicillin-intermediate.

Haemophilus influenzae = assay: MIC by broth microdilution (NCCLS), dried MicroScan panels, clinical isolates 1998-1999; conditions: for MIC90: Haemophilus influenzae
Enterococcus faecalis = assay: MIC by agar macrodilution (NCCLS), 373 Gram positive isolates, Athens 1998
Enterococcus faecium = assay: as above
Staphylococcus aureus = assay: as above; conditions: Methicillin-susceptible Staphylococcus aureus (n = 85); for MIC90: read-out: MIC90
Aeromonas spp. = assay: MIC by agar dilution (NCCLS M7-A4), 288 enteropathogenic isolates, gemifloxacin and 15 other antimicrobials; conditions: Aeromonas spp. N= 16
Streptococcus pneumoniae [4] = assay: MIC by agar dilution (NCCLS), 411 isolates Buenos Aires 1998-99; conditions: for MIC / MIC90: Streptococcus pneumoniae; for MIC: Ciprofloxacin-resistant S. pneumoniae, read-out: MIC; for MIC90: read-out: MIC90
[5] = 24 h, read-out: MIC (mg/L) Range
[6] = Streptococcus pneumoniae (302 isolates)
[7] = Penicillin-intermediate S. pneumoniae (n = 24)
[8] = Penicillin-susceptible S. pneumoniae (n = 107)
[9] = Haemophilus influenzae (300 isolates)
[10] = Streptococcus pneumoniae (n = 90)

Cc1c(F)c(N2CCNC(C)C2)cc2c1c(=O)c(C(=O)O)cn2C1CC1 (stereo not shown) [Grepafloxacin, grepafloxacin]
MIC90 ([1]; all (380) isolates tested (235 S. pneumoniae, 145 H. influenzae)): 0.12 µg/mL (≈ 0.334 µM) | MIC90 ([1]; all isolates tested (602)): 0.12 µg/mL (≈ 0.334 µM) | MIC (Shigella spp.; [5]): 0.015 to 0.03 mg/L (≈ 0.0417 to 0.0835 µM) | MIC (Shigella spp.; read-out: MIC (mg/L) 50%): ≤ 0.015 mg/L | MIC (Shigella spp.; read-out: MIC (mg/L) 90%): 0.03 mg/L (≈ 0.0835 µM) | MIC50 (Streptococcus pneumoniae [2]; [6]): 0.03 µg/mL (≈ 0.0835 µM) | MIC Range (Streptococcus pneumoniae [2]; [6]): ≤0.015 to 0.25 µg/mL | MIC90 (Streptococcus pneumoniae [2]; Erythromycin-resistant (86)): 0.12 µg/mL (≈ 0.334 µM) | MIC90 (Streptococcus pneumoniae [2]; Erythromycin-sensitive (216)): 0.25 µg/mL (≈ 0.696 µM) | MIC90 (Streptococcus pneumoniae [2]; Penicillin-intermediate (124)): 0.12 µg/mL (≈ 0.334 µM) | MIC90 (Streptococcus pneumoniae [2]; Penicillin-resistant (80)): 0.12 µg/mL (≈ 0.334 µM) | MIC90 (Streptococcus pneumoniae [2]; Penicillin-sensitive (98)): 0.12 µg/mL (≈ 0.334 µM) | MIC90 (Streptococcus pneumoniae [2]; [6]): 0.12 µg/mL (≈ 0.334 µM) | MIC50 (Pseudomonas aeruginosa): 1 µg/mL (≈ 2.78 µM) | MIC90 (Pseudomonas aeruginosa): > 64 µg/mL | MIC50 (Klebsiella pneumoniae): 0.125 µg/mL (≈ 0.348 µM) | MIC90 (Klebsiella pneumoniae): 1 µg/mL (≈ 2.78 µM) | MIC Range (Klebsiella pneumoniae): ≤0.03 to 64 µg/mL | MIC Range (Streptococcus pneumoniae [3]; [7]): 0.047-0.5 | MIC Range (Streptococcus pneumoniae [3]; [8]): 0.047-1 | MIC50 (Streptococcus pneumoniae [3]; [7]): 0.19 µg/mL (≈ 0.529 µM) | MIC90 (Streptococcus pneumoniae [3]; [7]): 0.38 µg/mL (≈ 1.06 µM) | MIC50 (Streptococcus pneumoniae [3]; [8]): 0.19 µg/mL (≈ 0.529 µM) | MIC90 (Streptococcus pneumoniae [3]; [8]): 0.38 µg/mL (≈ 1.06 µM) | MIC50 (Haemophilus influenzae; [9]): ≤ 0.015 µg/mL | MIC Range (Haemophilus influenzae; [9]): ≤0.015 to 0.12 µg/mL | MIC90 (Haemophilus influenzae; [9]): ≤ 0.015 µg/mL | MIC90 (Haemophilus influenzae; β-lactamase negative (234)): ≤ 0.015 µg/mL | MIC90 (Haemophilus influenzae; β-lactamase positive (66)): 0.03 µg/mL (≈ 0.0835 µM) | MIC distribution (µg/ml) 0.03 (Enterococcus faecalis): 0 | MIC distribution (µg/ml) 0.06 (Enterococcus faecalis): 0 | MIC distribution (µg/ml) 0.125 (Enterococcus faecalis): 0 | MIC distribution (µg/ml) 0.25 (Enterococcus faecalis): 2 | MIC distribution (µg/ml) 1 (Enterococcus faecalis): 22 | MIC distribution (µg/ml) 2 (Enterococcus faecalis): 21 | MIC distribution (µg/ml) 4 (Enterococcus faecalis): 6 | MIC distribution (µg/ml) 8 (Enterococcus faecalis): 4 | MIC distribution (µg/ml) 16 (Enterococcus faecalis): 2 | MIC distribution (µg/ml) ≤0.015 (Enterococcus faecalis): 0 | MIC distribution (µg/ml) ≥32 (Enterococcus faecalis): 19 | MIC50 (Enterococcus faecalis; Enterococcus faecalis, n = 81 isolates, read-out: MIC50): 2 µg/mL (≈ 5.56 µM) | MIC90 (Enterococcus faecalis; Enterococcus faecalis, n = 81 isolates, read-out: MIC90): ≥ 32 µg/mL | MIC distribution (µg/ml) 0.5 (Enterococcus faecalis; number of isolates at MIC 0.5 µg/ml, n = 81): 5 | MIC distribution (µg/ml) 0.03 (Enterococcus faecium): 0 | MIC distribution (µg/ml) 0.06 (Enterococcus faecium): 0 | MIC distribution (µg/ml) 0.125 (Enterococcus faecium): 0 | MIC distribution (µg/ml) 0.25 (Enterococcus faecium): 2 | MIC distribution (µg/ml) 0.5 (Enterococcus faecium): 4 | MIC distribution (µg/ml) 1 (Enterococcus faecium): 3 | MIC distribution (µg/ml) 2 (Enterococcus faecium): 0 | MIC distribution (µg/ml) 4 (Enterococcus faecium): 0 | MIC distribution (µg/ml) 8 (Enterococcus faecium): 1 | MIC distribution (µg/ml) 16 (Enterococcus faecium): 1 | MIC distribution (µg/ml) ≤0.015 (Enterococcus faecium): 0 | MIC distribution (µg/ml) ≥32 (Enterococcus faecium): 3 | MIC50 (Enterococcus faecium; Enterococcus faecium, n = 14 isolates, read-out: MIC50): 2 µg/mL (≈ 5.56 µM) | MIC90 (Enterococcus faecium; Enterococcus faecium, n = 14 isolates, read-out: MIC90): ≥ 32 µg/mL | MIC Range (Staphylococcus aureus): 0.06 to 32 µg/mL | MIC50 (Staphylococcus aureus; read-out: MIC50): 0.125 µg/mL (≈ 0.348 µM) | MIC90 (Staphylococcus aureus): 0.25 µg/mL (≈ 0.696 µM) | MIC (mg/L) Range (Aeromonas spp.): ≤0.015 to 0.12 mg/L | MIC (Aeromonas spp.; read-out: MIC (mg/L) 50%): 0.03 mg/L (≈ 0.0835 µM) | MIC (Aeromonas spp.; read-out: MIC (mg/L) 90%): 0.06 mg/L (≈ 0.167 µM)

CC1COc2c(N3CCN(C)CC3)c(F)cc3c(=O)c(C(=O)O)cn1c23 (stereo not shown) [Ofloxacin, ofloxacin]
MIC Range (Streptococcus pneumoniae [4]; [10]): 1 to 16 µg/mL | MIC (Streptococcus pneumoniae [4]; Strain 1): 2 µg/mL (≈ 5.53 µM) | MIC (Streptococcus pneumoniae [4]; Strain 2): 2 µg/mL (≈ 5.53 µM) | MIC (Streptococcus pneumoniae [4]; Strain 3): 16 µg/mL (≈ 44.3 µM) | MIC (Streptococcus pneumoniae [4]; Strain 4): 8 µg/mL (≈ 22.1 µM) | MIC90 (Streptococcus pneumoniae [4]; S. pneumoniae, Penicillin intermediate (n = 17)): 2 µg/mL (≈ 5.53 µM) | MIC90 (Streptococcus pneumoniae [4]; S. pneumoniae, Penicillin resistant (n = 4)): 1 µg/mL (≈ 2.77 µM) | MIC90 (Streptococcus pneumoniae [4]; S. pneumoniae, Penicillin susceptible (n = 69)): 2 µg/mL (≈ 5.53 µM) | MIC90 (Streptococcus pneumoniae [4]; [10]): 2 µg/mL (≈ 5.53 µM) | MIC (Shigella spp.; [5]): 0.015 to 0.06 mg/L (≈ 0.0415 to 0.166 µM) | MIC (Shigella spp.; read-out: MIC (mg/L) 50%): 0.03 mg/L (≈ 0.083 µM) | MIC (Shigella spp.; read-out: MIC (mg/L) 90%): 0.06 mg/L (≈ 0.166 µM) | MIC50 (Streptococcus pneumoniae [2]; [6]): 2 µg/mL (≈ 5.53 µM) | MIC Range (Streptococcus pneumoniae [2]; [6]): ≤0.06 to 4 µg/mL | MIC90 (Streptococcus pneumoniae [2]; Erythromycin-resistant (86)): 2 µg/mL (≈ 5.53 µM) | MIC90 (Streptococcus pneumoniae [2]; Erythromycin-sensitive (216)): 4 µg/mL (≈ 11.1 µM) | MIC90 (Streptococcus pneumoniae [2]; Penicillin-intermediate (124)): 4 µg/mL (≈ 11.1 µM) | MIC90 (Streptococcus pneumoniae [2]; Penicillin-resistant (80)): 2 µg/mL (≈ 5.53 µM) | MIC90 (Streptococcus pneumoniae [2]; Penicillin-sensitive (98)): 2 µg/mL (≈ 5.53 µM) | MIC90 (Streptococcus pneumoniae [2]; [6]): 4 µg/mL (≈ 11.1 µM) | MIC50 (Pseudomonas aeruginosa): 2 µg/mL (≈ 5.53 µM) | MIC90 (Pseudomonas aeruginosa): > 64 µg/mL | MIC50 (Klebsiella pneumoniae): 0.125 µg/mL (≈ 0.346 µM) | MIC90 (Klebsiella pneumoniae): 1 µg/mL (≈ 2.77 µM) | MIC Range (Klebsiella pneumoniae): 0.06 to 32 µg/mL | MIC Range (Streptococcus pneumoniae [3]; [7]): 0.75-6 | MIC50 (Streptococcus pneumoniae [3]; [7]): 2 µg/mL (≈ 5.53 µM) | MIC90 (Streptococcus pneumoniae [3]; [7]): 3 µg/mL (≈ 8.3 µM) | MIC50 (Streptococcus pneumoniae [3]; [8]): 2 µg/mL (≈ 5.53 µM) | MIC90 (Streptococcus pneumoniae [3]; [8]): 4 µg/mL (≈ 11.1 µM) | MIC50 (Haemophilus influenzae; [9]): ≤ 0.06 µg/mL | MIC Range (Haemophilus influenzae; [9]): ≤0.06 to 0.5 µg/mL | MIC90 (Haemophilus influenzae; [9]): ≤ 0.06 µg/mL | MIC90 (Haemophilus influenzae; β-lactamase negative (234)): ≤ 0.06 µg/mL | MIC90 (Haemophilus influenzae; β-lactamase positive (66)): 0.12 µg/mL (≈ 0.332 µM) | MIC Range (Staphylococcus aureus): 0.25 to 32 µg/mL | MIC90 (Staphylococcus aureus): 1 µg/mL (≈ 2.77 µM) | MIC (mg/L) Range (Aeromonas spp.): ≤0.015 to 0.12 mg/L | MIC (Aeromonas spp.; read-out: MIC (mg/L) 50%): ≤ 0.015 mg/L | MIC (Aeromonas spp.; read-out: MIC (mg/L) 90%): 0.03 mg/L (≈ 0.083 µM)
